According to patent US7452965B2, “Colon tumor specific binding peptides” (University of Utah Research Foundation, priority 2002, dated 2008):
“Also recorded” adds a separate entry of the source. Ends that are not written are not given here.

Columns and labels:
[1] = system: human colon tumor; test: Peptide-binding assay on frozen tissue sections; conditions: frozen sections, 4° C.
Protocol: (§1) A biopsy of sporadic colon adenocarcinoma, liver and lung sarcoma, and grossly uninvolved colon, liver, lung, and stomach were frozen in optimum cutting temperature (OCT) and […] cryostat sections placed on glass slides. Sections were stained with H&E and untreated adjacent sections were incubated with RPM-FITC. After incubating with RPM-FITC in binding buffer for 45 minutes at 4° C., slides were washed and mounted using Pro-Long Anti-Fade (Molecular Probes). Nuclei were visualized by a quick incubation with Topro-3 (Molecular Probes) present in the last wash. Samples were analyzed by confocal microscopy.

[2] = system: HT29 cells; test: RPM-FITC immunofluorescence staining of cultured cells (confocal microscopy); type: cell-based; conditions: for localisation of peptide in HT29 cells: 100 uM, 1 hour
Protocol: (§2) Cell Culture: HT29, HCT116, or a 50% mixture of HT29 and HCT116 cells were plated on glass slides (Nalge). Wells were incubated with 10 μM of RPM-FITC peptide for 45 minutes at 4° C. or 37° C. After washing with wash buffer, cells were blocked with 1% NGS, 0.1% BSA, 0.1% Triton-X100 in PBS. Following the blocking step, wells were incubated with the polyclonal p53 antibody, D10, (Santa Cruz) for 1 hour at room temperature. The wells were washed and incubated with the secondary antibodies GαFITC Alexa 488 (Molecular Probes) and GαMouse Alexa 647 (Molecular Probes) and the nuclear stain Topro-3 (Molecular Probes). Wells were washed and mounted using Pro-Long Anti-fade (Molecular Probes). Slides were analyzed by confocal microscopy.
The peptide then was tested to determine whether it was able to differentiate HT29 from HCT116 cells. In order to distinguish HT29 from HCT116 cells in our immunohistochemical assays, staining was carried out in the presence of the transcription factor, p53. Staining for the protein p53 is a way to visually discriminate HT29 from HCT116 cells, since p53 is mutated and accumulates in HT29 cells but is wild type in HCT116 cells and thus, is rapidly degraded. […] To test the ability of the fluorescein conjugated peptide (RPM-FITC) to preferentially bind HT29 cells, HT29 and HCT116 cells were stained with RPM-FITC. […] When a mixture of HT29 and HCT116 cells was incubated with RPM-FITC and concurrently analyzed for the presence of p53, cells with the highest level of p53 protein also bound RPM-FITC (FIG. 5A).
The ability of a molecule to translocate across the cell membrane is important for drug delivery. HT29 cells were incubated for 1 hour at either 4° C. or 37° C. in the presence of 100 uM RPM-FITC. After incubation, cells were washed, fixed with 2% paraformaldehyde, then incubated with an anti-FITC secondary antibody to amplify the fluorescence signal.

[3] = system: lung and liver cancer, grossly uninvolved lung, liver, and stomach; test: Peptide-binding assay on frozen tissue sections; set-up: species or system human; conditions: cryostat sections
Protocol: as §1
To determine whether RPM-FITC was able to bind cancers originated from tissues other than colon or to other normal tissues, a peptide-binding assay was performed on cryostat sections of lung and liver cancer, and grossly uninvolved lung, liver, and stomach. As a positive control, a section of colon tumor was stained in parallel with the other sections. […] Binding to HT29 Cells is Dependent on the Amino Acids, RPMC-C (SEQ ID NO: 136).

[4] = system: HCT116 cells; test: RPM-FITC immunofluorescence staining of cultured cells (confocal microscopy); type: cell-based; conditions: 1 hour at 4° C.
Protocol: as §2, with “Wells were incubated with 10 μM of RPM-FITC peptide for 45 minutes at 4° C. or 37° C.” left out
The peptide then was tested to determine whether it was able to differentiate HT29 from HCT116 cells. In order to distinguish HT29 from HCT116 cells in our immunohistochemical assays, staining was carried out in the presence of the transcription factor, p53. Staining for the protein p53 is a way to visually discriminate HT29 from HCT116 cells, since p53 is mutated and accumulates in HT29 cells but is wild type in HCT116 cells and thus, is rapidly degraded. […] When a mixture of HT29 and HCT116 cells was incubated with RPM-FITC and concurrently analyzed for the presence of p53, cells with the highest level of p53 protein also bound RPM-FITC (FIG. 5A).

[5] = system: grossly uninvolved normal colon; test: Peptide-binding assay on frozen tissue sections; set-up: species or system human
Protocol: as §1

binding/staining of human colon tumor sections ([1]; listed as FITC-conjugated RPM): showed binding
labeling of lung and liver cancer and uninvolved lung, liver, stomach [3]: no labeling
binding to adjacent normal colon tissue [5]: no binding
Substance: RPM-FITC: fluorescein conjugated peptide (RPM-FITC) (CPIEDRPMC; cysteine pairing not given here; also: fluorescein (FITC) conjugated, position not given here)
binding/staining of human colon tumor sections [1]: preferential binding; also recorded: bright staining
localisation of peptide in HT29 cells ([2]; 4° C.): confined to the cell surface
localisation of peptide in HT29 cells ([2]; 37° C.): diffuse staining throughout the cells
RPM-FITC staining of HT29 cells ([2]; 1 hour at 4° C.): showed fluorescence
RPM-FITC staining of HCT116 cells [4]: little or no fluorescence
